SMILES strings stand for the structures. pIC50: −log10 of the molar value. A value given as a limit tells only on which side of the number the result lay.

The first experiment deals with NLRP3 inflammasome. Put plainly: IL-1β secretion assay. Particulars: Homo sapiens, THP-1, 3 h, PMA-differentiated THP-1 cells, 15 μM nigericin, HTRF. The format is cell-based. On the procedure:
10 μL supernatant was removed, and IL-1p levels were monitored using an HTRF assay (CisBio, #62IL1PEC) according to manufacturers' instructions. Viability and pyroptosis was monitored with the addition of PrestoBlue cell viability reagent (Life Technologies, #A13261) directly to the cell culture plate.
IC50 values were calculated from the plot of percentage of inhibition versus the inhibitor concentration by a logistics fit according to: y=A2+(A1−A2)/(1+(x/IC50)^p) where y is the %-inhibition at the inhibitor concentration, x. A1 is the lowest inhibition value, i.e. 0%, and A2 the maximum inhibition value, i.e. 100%. The exponent, p, is the Hill coefficient. The curve fitting was conducted with an internally developed software suite.
NLRP3-dependent IL-1β secretion was stimulated in PMA-differentiated THP-1 cells by the addition of nigericin, and cytokines were measured in the […] after 3 hours. As discussed above, activation of the NLRP3 inflammasome requires both an NF-kB-dependent priming step and the addition of a NLRP3 activator.
By pIC50 is commonly meant −log10 of the IC50, conventionally taken in molar units. High values mean a low IC50, low ones a high IC50. As for `CC(C)(O)c1nn(CC(=O)N[C@@H]2CCC[C@@H](O)C2)c(=O)c2cc3sc(Cl)cc3n12` [Ex 64, 2-(2-Chloro-5-(2-hydroxypropan-2-yl)-8-oxothieno[2′,3′:4,5]pyrrolo[1,2-d][1,2,4]triazin-7(8H)-yl)-N-((1R,3R)-3-hydroxycyclohexyl)acetamide], the pIC50 was 8.47.

As to `CC(C)c1nn(CC(=O)N[C@H]2C[C@@](C)(O)C2)c(=O)c2cc3scnc3n12` [Ex 93, N-((1s,3s)-3-Hydroxy-3-methylcyclobutyl)-2-(5-isopropyl-8-oxothiazolo[5′,4′:4,5]pyrrolo[1,2-d][1,2,4]triazin-7(8H)-yl)acetamide], the pIC50 was 9.10.

Turning to `CC(C)(O)c1nn(CC(=O)N[C@H]2CCNC2)c(=O)c2cc3sc(Cl)cc3n12` [Ex 107, (S)-2-(2-Chloro-5-(2-hydroxypropan-2-yl)-8-oxothieno[2′,3′:4,5]pyrrolo[1,2-d][1,2,4]triazin-7(8H)-yl)-N-(pyrrolidin-3-yl)acetamide], the pIC50 was 5.36.

For the molecule `CC(C)c1nn(CC(=O)N[C@H]2C[C@@](C)(O)C2)c(=O)c2cc3sc(F)cc3n12` [Ex 87, 2-(2-Fluoro-5-isopropyl-8-oxothieno[2′,3′:4,5]pyrrolo[1,2-d][1,2,4]triazin-7(8H)-yl)-N-((1s,3s)-3-hydroxy-3-methylcyclobutyl)acetamide], the pIC50 was 9.00.

As for `CC(C)c1nn(CC(=O)Nc2ccnn2C)c(=O)c2cc3sc(Cl)cc3n12` [Ex 57, 2-(2-Chloro-5-isopropyl-8-oxothieno[2′,3′:4,5]pyrrolo[1,2-d][1,2,4]triazin-7(8H)-yl)-N-(1-methyl-1H-pyrazol-5-yl)acetamide], the pIC50 was 7.21.

Regarding `CC(C)(O)CCNC(=O)Cn1nc(C(C)(C)O)n2c(cc3sc(Cl)cc32)c1=O` [Ex 80], the pIC50 is 7.22.

Regarding `CC(C)c1nn(CC(=O)N[C@@H]2CC[C@@H](N)C2)c(=O)c2cc3sc(Cl)cc3n12` [Ex 22, N-((1R,3R)-3-Aminocyclopentyl)-2-(2-chloro-5-isopropyl-8-oxothieno[2′,3′:4,5]pyrrolo[1,2-d][1,2,4]triazin-7(8H)-yl)acetamide], the negative logarithm of the IC50 (pIC50) was 6.39.

`CC(C)c1nn(CC(=O)N[C@@H]2CCCN(CCOC(F)(F)F)C2)c(=O)c2cc3sc(Cl)cc3n12` [Ex 78, (R)-2-(2-Chloro-5-isopropyl-8-oxothieno[2′,3′:4,5]pyrrolo[1,2-d][1,2,4]triazin-7(8H)-yl)-N-(1-(2-(trifluoromethoxy)ethyl)piperidin-3-yl)acetamide] showed a pIC50 of 7.15.

With `CC(C)c1nn(CC(=O)N[C@H]2C[C@H](O)C2)c(=O)c2cc3sc(Cl)cc3n12` [Ex 108, 2-(2-Chloro-5-isopropyl-8-oxothieno[2′,3′:4,5]pyrrolo[1,2-d][1,2,4]triazin-7(8H)-yl)-N-((1r,3r)-3-hydroxycyclobutyl)acetamide], the pIC50 is 7.00.

The molecule `CC(C)c1nn(CC(=O)NC2CC3(CC(O)C3)C2)c(=O)c2cc3sc(Cl)cc3n12` (stereo not drawn) [Ex 73, 2-(2-Chloro-5-isopropyl-8-oxothieno[2′,3′:4,5]pyrrolo[1,2-d][1,2,4]triazin-7(8H)-yl)-N-(6-hydroxyspiro[3.3]heptan-2-yl)acetamide] showed a negative-log IC50 (pIC50) of 7.84.

The molecule `CC(C)c1nn(CC(=O)NC[C@@H](C)O)c(=O)c2cc3sc(F)cc3n12` [Ex 85, (R)-2-(2-Fluoro-5-isopropyl-8-oxothieno[2′,3′:4,5]pyrrolo[1,2-d][1,2,4]triazin-7(8H)-yl)-N-(2-hydroxypropyl)acetamide] showed a pIC50 of 6.89.

With `CCN1CCC[C@@H](NC(=O)Cn2nc(C(C)(C)O)n3c(cc4sc(Cl)cc43)c2=O)C1` [Ex 132, (R)-2-(2-Chloro-5-(2-hydroxypropan-2-yl)-8-oxothieno[2′,3′:4,5]pyrrolo[1,2-d][1,2,4]triazin-7(8H)-yl)-N-(1-ethylpiperidin-3-yl)acetamide], the pIC50 is 9.10.

`O=C(Cn1nc(C2CC2)n2c(cc3sc(Cl)cc32)c1=O)N[C@H]1CC[C@H](C(=O)O)CC1` [Ex 121, (1r,4r)-4-(2-(2-Chloro-5-cyclopropyl-8-oxothieno[2′,3′:4,5]pyrrolo[1,2-d][1,2,4]triazin-7(8H)-yl)acetamido)cyclohexane-1-carboxylic acid] gave a pIC50 of 7.36.

Molecule `CC(C)c1nn(CC(=O)N[C@@H]2CCN(C)C2)c(=O)c2cc3sc(Cl)cc3n12` [Ex 104, (R)-2-(2-Chloro-5-isopropyl-8-oxothieno[2′,3′:4,5]pyrrolo[1,2-d][1,2,4]triazin-7(8H)-yl)-N-(1-methylpyrrolidin-3-yl)acetamide] showed a pIC50 of 6.59.

The molecule `CC(C)(O)c1nn(CC(=O)Nc2ccc3cn[nH]c3c2)c(=O)c2cc3sc(Cl)cc3n12` [Ex 65, 2-(2-Chloro-5-(2-hydroxypropan-2-yl)-8-oxothieno[2′,3′:4,5]pyrrolo[1,2-d][1,2,4]triazin-7(8H)-yl)-N-(1H-indazol-6-yl)acetamide] gave a pIC50 of 8.21.

In turn, `CC(C)c1nn(CC(=O)N[C@H]2C[C@](O)(C(F)(F)F)C2)c(=O)c2cc3sc(Cl)cc3n12` [Ex 74, 2-(2-Chloro-5-isopropyl-8-oxothieno[2′,3′:4,5]pyrrolo[1,2-d][1,2,4]triazin-7(8H)-yl)-N-((1s,3s)-3-hydroxy-3-(trifluoromethyl)cyclobutyl)acetamide] showed a pIC50 of 8.36.

Consider `CC(C)c1nn(CC(=O)NC[C@@H](C)O)c(=O)c2cc3scnc3n12` [Ex 95, (R)-N-(2-Hydroxypropyl)-2-(5-isopropyl-8-oxothiazolo[5′,4′:4,5]pyrrolo[1,2-d][1,2,4]triazin-7(8H)-yl)acetamide], for which the pIC50 is 6.61.

In the next experiment the test system is NF-kB-dependent TNF-α secretion. The experiment in a line: TNF-α secretion assay (counterscreen). The format is cell-based. Particulars: Homo sapiens; THP-1 cells, Pam3CSK4-stimulated, 3 hours, HTRF. On the procedure:
Monocytic THP-1 cells were maintained according to providers' instructions in RPMI media as described above. Undifferentiated cells were plated at 50,000 cells per well in a 384-well flat-bottom cell culture plates (Greiner, #781986), and allowed to rest overnight. Experimental compounds were prepared and added as described above. TNF-α secretion was triggered by the addition of either 1 μg/mL LPS (Sigma, #L4391) or 100 ng/mL Pam3CSK4 (Invivogen, #tlrl-pms) depending on the experiment, and cells were incubated for 3 hours. 10 μL supernatant was removed, and TNF-α levels were monitored using an HTRF assay (CisBio, #62TNFPEC) according to manufacturers' instructions. Viability was monitored as described above.
IC50 values were calculated from the plot of percentage of inhibition versus the inhibitor concentration by a logistics fit according to: y=A2+(A1−A2)/(1+(x/IC50)^p) where y is the %-inhibition at the inhibitor concentration, x. A1 is the lowest inhibition value, i.e. 0%, and A2 the maximum inhibition value, i.e. 100%. The exponent, p, is the Hill coefficient. The curve fitting was conducted with an internally developed software suite. […]
On to `CC(C)c1nn(CC(=O)N[C@@H]2CCCN(C3CCC3)C2)c(=O)c2cc3sc(Cl)cc3n12` [Ex 125, (R)-2-(2-Chloro-5-isopropyl-8-oxothieno[2′,3′:4,5]pyrrolo[1,2-d][1,2,4]triazin-7(8H)-yl)-N-(1-cyclobutylpiperidin-3-yl)acetamide], for which the pIC50 is < 4.48.

`CC(C)(O)c1nn(CC(=O)N[C@@H]2CCC[C@@H](O)C2)c(=O)c2cc3sc(Cl)cc3n12` [Ex 64, 2-(2-Chloro-5-(2-hydroxypropan-2-yl)-8-oxothieno[2′,3′:4,5]pyrrolo[1,2-d][1,2,4]triazin-7(8H)-yl)-N-((1R,3R)-3-hydroxycyclohexyl)acetamide]: the pIC50 is < 4.00.

For the molecule `CN1CCC[C@@H](NC(=O)Cn2nc(C(C)(C)O)n3c(cc4sc(Cl)cc43)c2=O)C1` [Ex 60, (R)-2-(2-Chloro-5-(2-hydroxypropan-2-yl)-8-oxothieno[2′,3′:4,5]pyrrolo[1,2-d][1,2,4]triazin-7(8H)-yl)-N-(1-methylpiperidin-3-yl)acetamide], the pIC50 is < 4.00.

Consider `CC(C)c1nn(CC(=O)Nc2cccnc2)c(=O)c2cc3sc(F)cc3n12` [Ex 5, 2-(2-Fluoro-5-isopropyl-8-oxothieno[2,3′:4,5]pyrrolo[1,2-d][1,2,4]triazin-7(8H)-yl)-N-(pyridin-3-yl)acetamide], for which the pIC50 was < 4.00.

Regarding `CC(C)c1nn(CC(=O)N[C@@H]2CCCNC2)c(=O)c2cc3sc(Cl)cc3n12` [Ex 10, (R)-2-(2-Chloro-5-isopropyl-8-oxothieno[2′,3′:4,5]pyrrolo[1,2-d][1,2,4]triazin-7(8H)-yl)-N-(piperidin-3-yl)acetamide], the pIC50 is < 4.00.

Consider `CC(C)c1nn(CC(=O)N[C@@H]2CCCN(C)C2)c(=O)c2cc3scnc3n12` [Ex 48, (R)-2-(5-Isopropyl-8-oxothiazolo[5′,4′:4,5]pyrrolo[1,2-d][1,2,4]triazin-7(8H)-yl)-N-(1-methylpiperidin-3-yl)acetamide], for which the negative-log IC50 (pIC50) is < 4.00.

Turning to `CC(C)c1nn(CC(=O)Nc2cccnc2)c(=O)c2cc3sc(Cl)cc3n12` [Ex 2, 2-(2-Chloro-5-isopropyl-8-oxothieno[2′,3′:4,5]pyrrolo[1,2-d][1,2,4]triazin-7(8H)-yl)-N-(pyridin-3-yl)acetamide], the pIC50 is < 4.00.

Take `CC(C)c1nn(CC(=O)N[C@H]2CCCN(C)C2)c(=O)c2cc3sc(Cl)cc3n12` [Ex 18, (S)-2-(2-Chloro-5-isopropyl-8-oxothieno[2′,3′:4,5]pyrrolo[1,2-d][1,2,4]triazin-7(8H)-yl)-N-(1-methylpiperidin-3-yl)acetamide]: the pIC50 is < 4.00.

As to `CC(C)c1nn(CC(=O)N[C@@H]2CCCN(C)C2)c(=O)c2cc3sc(Cl)cc3n12` [Ex 17, (R)-2-(2-Chloro-5-isopropyl-8-oxothieno[2′,3′:4,5]pyrrolo[1,2-d][1,2,4]triazin-7(8H)-yl)-N-(1-methylpiperidin-3-yl)acetamide], the pIC50 is < 4.00.

Turning to `CC(C)c1nn(CC(=O)NC2CCOCC2)c(=O)c2cc3sc(Cl)cc3n12` [Ex 75, 2-(2-Chloro-5-isopropyl-8-oxothieno[2′,3′:4,5]pyrrolo[1,2-d][1,2,4]triazin-7(8H)-yl)-N-(tetrahydro-2H-pyran-4-yl)acetamide], the negative logarithm of the IC50 (pIC50) is < 4.00.

The values above are taken from patent publication US12168012B2, “NLRP3 inflammasome inhibitors” (Novartis AG, priority 2018, dated 2024).
